# From the supplement of paper PMC10307832
# Experiments:
# Experiment in all cases: relative viability (nuclei count vs DMSO), 5 days (fraction); higher = more cells survive
# [1] = compound: CN(C)CC1=CC(=CC=C1)N=C(C2=CC=CC=C2)C3=C(NC4=C3C=CC(=C4)C(=O)N(C)C)O + CS(=O)(=O)CCNCc1ccc(-c2ccc3ncnc(Nc4ccc(OCc5cccc(F)c5)c(Cl)c4)c3c2)o1 [Lapatinib] (partner 2 µM)
# Procedure, shortened: (§1)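 Each reported value is a median over duplicate plates. It expresses relative viability: treated-well nuclei count divided by vehicle-well nuclei count. Lung cancer cell lines in 1536-well plates were dosed by pin tool a day after seeding, alone with one drug or with a fixed anchor-drug dose plus five library-drug doses (not always all listed) in √10 steps, and nuclei were counted after 5 days.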
# [2] = compound: CN(C)CC1=CC(=CC=C1)N=C(C2=CC=CC=C2)C3=C(NC4=C3C=CC(=C4)C(=O)N(C)C)O + C[C@@H](Oc1cc(-c2cnn(C3CCNCC3)c2)cnc1N)c1c(Cl)ccc(F)c1Cl [Crizotinib] (partner 1 µM)
# Procedure, shortened: as §1
# [3] = compound: CN(C)CC1=CC(=CC=C1)N=C(C2=CC=CC=C2)C3=C(NC4=C3C=CC(=C4)C(=O)N(C)C)O + Cc1cc(Nc2cc(N3CCN(C)CC3)nc(Sc3ccc(NC(=O)C4CC4)cc3)n2)n[nH]1 [Tozasertib] (partner 0.1 µM)
# Procedure, shortened: as §1
# [4] = compound: CN(C)CC1=CC(=CC=C1)N=C(C2=CC=CC=C2)C3=C(NC4=C3C=CC(=C4)C(=O)N(C)C)O + Nc1ncn([C@H]2C[C@H](O)[C@@H](CO)O2)c(=O)n1 [Decitabine] (partner 2 µM)
# Procedure, shortened: as §1
Cell Line,relative viability ([1]; first compound 0.08 µM),relative viability ([1]; first compound 0.253 µM),relative viability ([1]; first compound 0.8 µM),relative viability ([1]; first compound 2.53 µM),relative viability ([1]; first compound 8 µM),relative viability ([2]; first compound 0.08 µM),relative viability ([2]; first compound 0.253 µM),relative viability ([2]; first compound 0.8 µM),relative viability ([2]; first compound 2.53 µM),relative viability ([2]; first compound 8 µM),relative viability ([3]; first compound 0.08 µM),relative viability ([3]; first compound 0.253 µM),relative viability ([3]; first compound 0.8 µM),relative viability ([3]; first compound 2.53 µM),relative viability ([3]; first compound 8 µM),relative viability ([4]; first compound 0.253 µM),relative viability ([4]; first compound 0.8 µM),relative viability ([4]; first compound 2.53 µM),relative viability ([4]; first compound 8 µM),relative viability ([4]; first compound 0.08 µM)
NCI-H23,1.39,1.26,1.03,0.984,0.886,0.376,0.538,0.503,0.483,0.417,0.355,0.454,0.413,0.411,0.366,0.332,0.303,0.343,0.346,–
NCI-H322M,0.612,0.599,0.54,0.564,0.575,0.931,0.899,0.928,0.887,0.853,0.432,0.42,0.407,0.449,0.317,0.719,0.644,0.652,0.567,0.598
NCI-H358,0.46,0.347,0.468,0.425,0.413,0.506,0.501,0.513,0.484,0.443,0.105,0.0937,0.0915,0.096,0.116,0.214,0.212,0.214,0.236,0.198
NCI-H460,1.1,0.967,1.04,0.776,0.741,0.824,0.811,0.998,0.819,0.733,0.292,0.574,0.62,0.426,0.397,0.491,0.503,0.456,0.471,0.449
NCI-H520,0.774,0.801,0.766,0.791,0.724,0.713,0.722,0.833,0.705,0.71,0.45,0.373,0.425,0.454,0.386,0.528,0.481,0.5,0.511,0.489
NCI-H596,1.12,1.32,0.971,1.05,1.13,1,0.952,1.04,0.968,0.785,0.898,0.851,0.826,0.847,0.906,1.05,0.967,1.03,0.979,0.919
NCI-H647,1.15,1.03,0.944,0.957,0.603,1.01,0.987,1.08,0.727,0.671,0.262,0.362,0.263,0.356,0.235,0.477,0.423,0.438,0.488,0.414
NCI-H650,1.02,1.12,1.07,0.706,0.755,0.772,0.647,0.677,0.561,0.645,0.815,0.754,0.683,0.718,0.663,0.408,0.335,0.33,0.371,0.364
NCI-H661,0.502,0.433,0.559,0.472,0.291,–,0.981,1.03,0.862,0.994,0.374,0.345,0.355,0.319,0.367,0.55,0.477,0.554,0.584,0.537
NCI-H727,0.7,0.855,0.834,0.734,0.665,0.772,0.808,0.78,0.795,0.699,0.361,0.721,0.608,0.647,0.486,0.817,0.841,1.09,0.864,–
NCI-H838,0.972,1.01,1.08,0.895,0.685,0.825,0.784,0.861,0.659,0.755,0.276,0.27,0.274,0.264,0.268,0.507,0.427,0.458,0.413,0.485
NCI-H1355,1.08,1.02,0.955,0.948,0.885,1.1,1.05,1.06,1.03,1.06,0.551,0.616,0.414,0.539,0.428,0.359,0.331,0.342,0.365,0.376
NCI-H1437,0.839,0.772,0.978,0.775,0.835,0.898,0.949,0.992,0.813,0.959,0.431,0.443,0.37,0.387,0.4,0.609,0.576,0.577,0.685,0.559
NCI-H1650,0.688,0.828,0.86,0.736,0.647,1.14,0.956,1.03,0.977,0.749,0.352,0.498,0.421,0.405,0.343,0.376,0.361,0.485,0.452,0.471
NCI-H1651,0.76,0.762,0.77,0.599,0.796,0.884,0.844,0.873,0.835,0.822,0.621,0.755,0.71,0.595,0.692,0.622,0.616,0.423,0.643,0.665
NCI-H1666,0.868,0.616,0.887,0.668,0.774,1.24,1.04,0.933,1.14,1.13,0.642,0.59,0.675,0.603,0.868,0.715,0.68,0.769,0.744,0.694
NCI-H1734,1,1.08,1.02,1.02,0.881,0.7,0.651,0.597,0.667,0.557,0.259,0.262,0.227,0.268,0.247,0.491,0.455,0.564,0.493,0.526
NCI-H1755,1.09,0.98,1.02,0.935,1.07,0.792,0.897,0.789,0.758,0.825,0.531,0.479,0.642,0.594,0.615,0.706,0.63,0.689,0.719,0.674
NCI-H1915,0.957,0.955,1.05,0.971,0.956,0.886,0.885,0.989,0.832,0.848,0.474,0.409,0.432,0.407,0.414,0.274,0.271,0.255,0.247,0.251
NCI-H1944,0.805,0.835,0.924,0.755,0.765,1.06,1.04,1.06,1.08,1.11,0.25,0.251,0.222,0.262,0.214,0.428,0.382,0.461,0.489,0.449
NCI-H1975,0.948,0.81,0.835,0.742,0.951,0.969,1.07,0.842,0.859,0.822,0.807,0.785,0.736,0.757,0.708,0.409,0.368,0.397,0.381,0.45
NCI-H1993,1.09,0.882,0.827,0.826,0.706,0.761,0.845,0.628,0.89,0.876,0.623,0.525,0.524,0.584,0.646,0.55,–,0.617,0.687,0.643
NCI-H2009,1.07,0.98,1.03,0.813,0.886,1.11,1.03,1.09,1.01,1,0.767,0.723,0.721,0.551,0.699,0.427,0.432,0.343,0.379,0.364
NCI-H2023,1.25,0.889,0.812,0.497,0.43,0.797,0.698,0.67,0.563,0.498,0.333,0.342,0.291,0.307,0.343,0.216,0.221,0.195,0.232,0.258
NCI-H2085,0.791,0.844,0.758,0.758,0.733,0.849,0.903,0.702,0.947,1.03,0.862,0.901,0.793,0.781,0.829,0.571,0.622,0.547,0.646,0.521
NCI-H2087,1.08,0.835,1.1,0.942,1.05,0.817,0.838,0.828,0.72,0.872,0.242,0.233,0.265,0.27,0.233,0.368,0.267,0.266,0.236,0.385
NCI-H2126,0.76,0.762,0.73,0.765,0.762,1.04,1.01,1.07,1.01,1.01,0.961,0.849,0.856,0.825,0.837,0.602,0.598,0.606,0.633,0.568
